According to US20250026748A1, “N-(5-SUBSTITUTED-[(1,3,4-THIADIAZOLYL) OR (THIAZOLYL)])(SUBSTITUTED)CARBOXAMIDE COMPOUNDS AND USE THEREOF FOR INHIBITING HUMAN POLYMERASE THETA” (Repare Therapeutics Inc., priority 2021, published 2025):

What was measured:
PXR nuclear receptor = PXR nuclear receptor (Homo sapiens (Human), UniProt O75469); assay: PXR method: luciferase reporter gene activation in transfected tumor cells; format: cell-based; details: test compound 0.03-10 μM; for fold induction at 24 h: compared with vehicle-treated cells, read-out: PXR activation (Max fold induction); for PXR activation (% Max activity): percentage of the response given by Rifampicin at 10 μM, 24 h
Description: An expression vector harboring a full-length PXR nuclear receptor plus the appropriate enhancers and promoters linked to the luciferase reporter gene were integrated into the tumor cells. Tumor cells transfected with the species-specific nuclear receptor and the corresponding response elements were seeded in a 96-well plate. Twenty-four hours after seeding, the cells were treated with six distinct concentrations (0.03-10 μM) of the test compound. The cells were then returned to the incubator for an additional 24 h. After this incubation period, the number of viable cells/well were determined using Promega's Cell Titer Fluor cytotoxicity assay. At the end of the assay, Promega's ONE-Glo was added to assess the receptor activation by monitoring reporter gene activity, and by comparing the results to vehicle-treated cells. Activation data were normalized to the number of viable cells/well. Results are expressed as a percentage of the response given by Rifampicin, the positive control, at a 10 μM dose.

[1] = Liver microsomal stability assay; format: in vitro ADME; details: pH 7.4; human liver microsomes 0.5 mg/mL, 1 μM compound, NADPH 1 mM, 37 °C
Description: Liver microsomes were thawed on ice prior to use. The incubation mixtures were prepared in 96-well plates and contained test compound or control (1 μM), liver microsomes (0.5 mg of microsomal protein/mL), MgCl2 (5 mM), phosphate buffer (100 mM, pH 7.4), 0.01% DMSO and 1% acetonitrile. A T=0 aliquot was withdrawn after 10 min pre-incubation at 37° C. on a shaker. Reactions were initiated by the addition of NADPH (final concentration of 1 mM) and the plate was kept on a shaker at 37° C., further samples were withdrawn at 5, 15, 30, and 60 minutes. At each timepoint, the reactions were immediately terminated by adding of ice-cold acetonitrile containing internal standard to the withdrawn sample. The extracted samples were centrifuged for 10 minutes at 3200 rpm to pellet the precipitated microsomal protein, and the supernatant was combined 1:1 with water and analyzed by LC-MS/MS. Using the T=0 peak area ratio as 100%, the percentage of parent compound remaining was calculated. For each compound, the In percentage remaining versus incubation time was plotted and the slope of this linear regression (−k) was converted to an in vitro T1/2 value and CLint using the equations below.

[2] = biological target: PolQ ATPase enzyme (1-894) (Homo sapiens (Human), UniProt O75417); assay: Polθ ATPase enzymatic assay (0.5 nM enzyme concentration), ADP-Glo; format: biochemical; details: average IC50; 0.5 nM PolQ ATPase enzyme (1-894)
How it was run: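 Enzyme (0.5 nM) pre-incubated 15 min at rt with 10-point inhibitor series in 50 mM Tris pH 7.5, 10% glycerol, 5 mM DTT, 10 mM MgCl2, 0.1 mg/ml BSA; reaction started with 20 nM fork DNA and 100 μM ATP, run 180 min at rt. ADP-Glo luminescence; IC50 from 4-parameter variable-slope fit.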

CYP3A4 [3] = biological target: T1, CYP3A4 (Homo sapiens (Human), UniProt P08684); assay: Reversible CYP inhibition in human liver microsomes (midazolam probe); format: in vitro ADME; details: human liver microsomes 0.1 mg/mL, 2.5 μM midazolam, 5 min, test compound up to 30 μM
Description: A seven-point semi-log dilution of each test compound (up to […]) or positive control inhibitors for CYP2C9 (up to 1000 nM sulphenazole), CYP2D6 (up to 500 nM quinidine) and CYP3A4 (up to 250 nM ketoconazole) were dissolved in DMSO and added to the incubation plate using a Tecan 300 (normalized for 0.3% DMSO content). Final reaction conditions were: human liver microsomes (0.1 mg/mL), potassium phosphate buffer 100 mM pH 7.4, 1 mM magnesium chloride, 5 NM diclofenac, 5 NM dextromethorphan and 2.5 μM midazolam. After a pre-incubation at 37 00. The reaction was started with the addition of NADPH solution at the final concentration of 1 mM and carried out at 37 00 for 5 minutes. The reaction was stopped by the addition of 1 volume of cold acetonitrile with internal standard (labetalol) to the incubation plate. The incubation plate was centrifuged at 3000 rpm for 10 minutes to precipitate proteins, and the supernatant was analyzed by LC-MS/MS. Metabolite area ratio (4-OH-diclofenac, dextrorphan and 1-OH-midazolam) versus ISTD area ratio was used as the quantitative signal. Data were analyzed using the plot log of concentration (×-axis) versus the percentage of inhibition (y axis) and the IC50, Hill Slope and R^2 were determined.

CYP3A4 [4] = biological target: T1, CYP3A4; assay: TDI method: time-dependent CYP inhibition, IC50 shift -NADPH/+NADPH; format: in vitro ADME; details: IC50 (-NADPH) divided by IC50 (+NADPH), 30 min pre-incubation, human liver microsomes
Description: Test compound or positive control inhibitors (CYP2C9: Tienilic acid; CYP2D6: paroxetine; CYP3A4: mifepristone) were dissolved in DMSO and a semi-log dilution (up to 50.0 μM) was prepared to 2 incubation plates and normalized for a final DMSO content of 0.5%. Human liver microsomes were diluted at 1 mg/mL with 100 mM potassium phosphate buffer pH 7.4 (1 mM MgCl2) and added to both incubation plates. After pre-incubation at 37° C., the reaction was started with the addition of NADPH (+NADPH condition) or with water (-NADPH condition). Plates were incubated for 30 min and 8 μL were transferred to a second incubation plate containing 72 μL of 1 mM NADPH, 20 μM diclofenac (CYP2C9), 20 μM dextromethorphan (CYP2D6) and 10 μM midazolam (CYP3A4) in 100 mM potassium phosphate buffer pH 7.4 (1 mM MgCl2). Plates were incubated for 10 min and the reaction was stopped by the addition of cold acetonitrile containing internal standard (1:1 v/v). Incubation plates were centrifuged at 3000 rpm for 10 minutes to precipitate protein, and the supernatant was used for LC-MS/MS analysis. Metabolite area ratio (4-OH-diclofenac, dextrorphan and 1-OH-midazolam) versus internal standard area ratio was used as the quantitative signal. Data were analyzed using the plot log of concentration (x axis) versus the percentage of inhibition (y axis) and IC50, Hill Slope and R^2 were determined. The IC50 shift was then calculated by dividing the IC50-NADPH condition by the IC50 obtained in the +NADPH condition.

[5] = biological target: Polθ ATPase enzyme (1-894) (Homo sapiens (Human), UniProt O75417); assay: Polθ ATPase enzymatic assay (3 nM enzyme concentration), ADP-Glo; format: biochemical; details: read-out: IC50 (nM) [PolQ] 3 nM; average IC50; 3 nM PolQ ATPase enzyme (1-894)
Description: Polθ ATPase enzyme (1-894) at 3 nM is incubated with a 10-point concentration response of inhibitors for 15 min at rt in the following buffer: 50 mM Tris Cl pH 7.5, 10% glycerol, 5 mM DTT, 10 mM MgCl2, 0.1 mg/ml BSA. Following pre-incubation with inhibitors, DNA (Fork C) at 20 nM and ATP at 100 μM are added to start the reaction. Enzymatic reaction proceeds at rt for 60 min. ATP consumption is measured using the ADP-Glo assay from Promega. Luminescence is read on the Envision and IC50 are determined using the variable slope 4-parameters equation.
DNA (Fork C) is made by annealing 3 different oligos containing the following sequence of nucleotides:
Oligos are annealed by heating at 95° C. for 5 min in the following buffer (10 mM Tris-HCl pH7.5, 50 mM NaCl, 1 mM EDTA) and cooled to rt. […]

PXR nuclear receptor, sequence (O75469 whole entry): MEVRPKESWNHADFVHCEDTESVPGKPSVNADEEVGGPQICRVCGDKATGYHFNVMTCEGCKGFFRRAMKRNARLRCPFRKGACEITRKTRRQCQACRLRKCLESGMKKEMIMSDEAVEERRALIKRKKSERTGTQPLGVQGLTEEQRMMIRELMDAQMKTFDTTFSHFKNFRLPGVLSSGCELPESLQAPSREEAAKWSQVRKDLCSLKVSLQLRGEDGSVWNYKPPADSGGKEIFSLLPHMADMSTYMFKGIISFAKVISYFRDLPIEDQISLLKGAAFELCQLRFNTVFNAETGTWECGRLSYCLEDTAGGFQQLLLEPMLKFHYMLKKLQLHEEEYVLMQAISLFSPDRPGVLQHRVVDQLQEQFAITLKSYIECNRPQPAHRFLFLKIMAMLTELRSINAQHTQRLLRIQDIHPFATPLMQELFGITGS
T1 sequence (P08684 whole entry): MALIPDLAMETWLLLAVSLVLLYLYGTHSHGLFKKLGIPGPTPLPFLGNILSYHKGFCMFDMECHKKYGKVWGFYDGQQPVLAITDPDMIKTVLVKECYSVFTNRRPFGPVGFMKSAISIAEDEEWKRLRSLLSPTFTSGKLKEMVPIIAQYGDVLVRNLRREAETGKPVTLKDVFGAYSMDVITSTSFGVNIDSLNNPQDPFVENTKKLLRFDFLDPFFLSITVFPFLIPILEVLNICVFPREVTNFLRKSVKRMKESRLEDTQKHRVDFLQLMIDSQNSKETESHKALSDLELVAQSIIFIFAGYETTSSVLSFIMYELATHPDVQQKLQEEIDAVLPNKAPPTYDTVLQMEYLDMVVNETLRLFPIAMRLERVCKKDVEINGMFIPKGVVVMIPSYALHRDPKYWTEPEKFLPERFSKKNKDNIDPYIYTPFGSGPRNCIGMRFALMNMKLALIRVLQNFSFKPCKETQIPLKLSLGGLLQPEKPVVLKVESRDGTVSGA
PolQ ATPase enzyme (1-894), sequence (O75417 1-894): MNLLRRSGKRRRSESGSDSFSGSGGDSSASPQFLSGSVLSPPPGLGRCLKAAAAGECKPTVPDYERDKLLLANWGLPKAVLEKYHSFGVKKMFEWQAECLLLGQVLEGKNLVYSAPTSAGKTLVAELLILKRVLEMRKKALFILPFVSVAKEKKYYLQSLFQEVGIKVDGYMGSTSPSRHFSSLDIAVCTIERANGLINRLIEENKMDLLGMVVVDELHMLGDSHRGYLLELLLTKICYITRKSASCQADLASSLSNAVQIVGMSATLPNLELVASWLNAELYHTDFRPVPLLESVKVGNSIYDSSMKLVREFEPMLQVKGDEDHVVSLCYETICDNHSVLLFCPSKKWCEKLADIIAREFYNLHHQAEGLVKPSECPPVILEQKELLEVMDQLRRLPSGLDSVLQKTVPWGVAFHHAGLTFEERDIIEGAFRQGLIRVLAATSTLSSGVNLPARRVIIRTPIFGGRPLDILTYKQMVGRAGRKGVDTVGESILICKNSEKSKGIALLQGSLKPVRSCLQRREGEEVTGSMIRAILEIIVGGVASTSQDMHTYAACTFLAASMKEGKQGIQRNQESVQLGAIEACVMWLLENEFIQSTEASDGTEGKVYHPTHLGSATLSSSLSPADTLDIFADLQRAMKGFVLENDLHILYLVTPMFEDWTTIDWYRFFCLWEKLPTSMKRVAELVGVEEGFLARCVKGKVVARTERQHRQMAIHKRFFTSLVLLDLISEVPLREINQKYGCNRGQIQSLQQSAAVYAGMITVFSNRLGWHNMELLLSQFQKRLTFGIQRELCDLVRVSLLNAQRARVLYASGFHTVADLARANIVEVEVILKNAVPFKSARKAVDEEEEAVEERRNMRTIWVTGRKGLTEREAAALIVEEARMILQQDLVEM
Polθ ATPase enzyme (1-894), sequence (O75417 1-894): as above

fold induction at 24 h (PXR nuclear receptor) | PXR activation (% Max activity) (PXR nuclear receptor) [%] | microsomal CLint at 1 μM [1] [µL/min/mg] | IC50 [2] [nM] | IC50 (CYP3A4 [3]) [nM] | Time-dependent CYP3A4 inhibition-shift after 30 min with NADPH (CYP3A4 [4]) [x] | IC50 [5] [nM] | Compound
1.5 | 3.0 | 22.5 | 7.6 | 1940 | 1 | – | COc1ccccc1-c1cnccc1C(=O)Nc1nnc(C#Cc2ccc(Cl)cc2)s1 [Compound 474]
1.8 | 5.0 | < 7.7 | – | > 30000 | 1 | – | C=C(C1=CN=CCC1C(=O)Nc1nnc(CCC2CC2)s1)/C(=C\N=C\Cl)OC (stereo not shown)
3.9 | 17 | 174 | – | 234 | 1 | – | COc1ccc(F)cc1-c1cnccc1C(=O)Nc1nnc(OCc2ccc(C#N)cc2)s1

The next lines start with the compound.

Compound | fold induction at 24 h (PXR nuclear receptor) | PXR activation (% Max activity) (PXR nuclear receptor) [%] | microsomal CLint at 1 μM [1] [µL/min/mg] | IC50 [2] [nM] | IC50 (CYP3A4 [3]) [nM] | Time-dependent CYP3A4 inhibition-shift after 30 min with NADPH (CYP3A4 [4]) [x] | IC50 [5] [nM]
COc1ccccc1-c1cnccc1C(=O)Nc1nnc(OCc2ccc(C#N)cc2)s1 | 7.9 | 36.0 | 234 | – | 450 | 3.6 | –
COc1ccccc1-c1cnccc1C(=O)Nc1nnc(OCc2ccc(Cl)cc2)s1 | 8.8 | 46.0 | 262 | – | 1170 | >6.5 | –
COc1ccc(F)cc1-c1cnccc1C(=O)Nc1nnc([C@@H]2C[C@H]2c2ccc(C#N)cc2)s1 [Compound 1, N-(5-((1R,2R)-2-(4-cyanophenyl)cyclopropyl)-1,3,4-thiadiazol-2-yl)-3-(5-fluoro-2-methoxyphenyl)isonicotinamide] | – | – | – | 1.1 | – | – | 5.8
